Earlier results as cited in patent US20030166469A1, “Crop harvesting method using a 1,2,4-triazol-1-ylpropanoic acid and derivatives” (priority 2001, published 2003).

Test system: cotton
Details: tested alone, no adjuvant; data of U.S. Pat. No. 6,444,613

## CCOC(=O)C(Cl)Cc1cc(-n2nc(C)n(C(F)F)c2=O)c(F)cc1Cl (stereo not drawn) [Compound Ic, ethyl α,2-dichloro-5-[4-(difluoromethyl)-4,5-dihydro-3-methyl-5-oxo-1H-1,2,4-triazol-1-yl]-4-fluoropropanoate]
  defoliation of cotton: ≤ 29%
